From PubChem BioAssay AID248 (DTP/NCI, 2004)
Several values for one entry are separate records, joined by “and”; a condition that tells them apart may be missing. Identical values can stand only once. Toxic doses and inconclusive results are not listed. Rule as the data show it: active = T/C of 150% or more; inactive = T/C below 125%. Square brackets hold non-standard residues; d marks the D form. Peptide text beside a SMILES is read from it. * marks the point of attachment. ξ: configuration not given here. Cbz = O=C(OCc1ccccc1)*; ξT = CC(O)C(N)C(=O)O

System: L1210 leukemia ip in BDF1 mice, survival T/C
Assay: NCI In Vivo Anticancer Drug Screen. Data for tumor model L1210 Leukemia (intraperitoneal) in B6D2F1 (BDF1) mice
Conditions: endpoint: mean survival time, higher = longer survival
Method in brief: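 In this screen, tumor-bearing mice given compound are compared to those given vehicle, and their survival values are reported as a treated-to-control quotient.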

[1] = dose: 12.5 mg/kg/injection, schedule: Q04DX003 (ip), vehicle: saline with Tween-80
[2] = dose: 25.0 mg/kg/injection, schedule: Q04DX003 (ip), vehicle: saline with Tween-80
[3] = dose: 100.0 mg/kg/injection, schedule: Q01DX001 (ip), vehicle: saline
[4] = dose: 200.0 mg/kg/injection, schedule: Q01DX001 (ip), vehicle: saline
[5] = dose: 400.0 mg/kg/injection, schedule: Q01DX001 (ip), vehicle: saline
[6] = dose: 100.0 mg/kg/injection, schedule: Q01DX001 (ip), vehicle: carboxymethylcellulose (CMC)
[7] = dose: 200.0 mg/kg/injection, schedule: Q01DX001 (ip), vehicle: carboxymethylcellulose (CMC)
[8] = dose: 400.0 mg/kg/injection, schedule: Q01DX001 (ip), vehicle: carboxymethylcellulose (CMC)
[9] = dose: 100.0 mg/kg/injection, schedule: Q04DX003 (ip), vehicle: saline with Tween-80
[10] = dose: 200.0 mg/kg/injection, schedule: Q04DX003 (ip), vehicle: saline with Tween-80
[11] = dose: 400.0 mg/kg/injection, schedule: Q04DX003 (ip), vehicle: saline with Tween-80
[12] = dose: 100.0 mg/kg/injection, schedule: Q04DX003 (ip), vehicle: Klucel (hydroxypropylcellulose) (HPC)
[13] = dose: 200.0 mg/kg/injection, schedule: Q04DX003 (ip), vehicle: Klucel (hydroxypropylcellulose) (HPC)
[14] = dose: 400.0 mg/kg/injection, schedule: Q04DX003 (ip), vehicle: Klucel (hydroxypropylcellulose) (HPC)

Measured: T/C

O=C(O)c1cc(CBr)ccc1CBr
inactive: dose: 6.25 mg/kg/injection, schedule: Q01DX009 (ip), vehicle: saline with Tween-80 100 % of control | dose: 6.25 mg/kg/injection, schedule: Q04DX003 (ip), vehicle: saline with Tween-80 93 % of control | dose: 12.5 mg/kg/injection, schedule: Q01DX009 (ip), vehicle: saline with Tween-80 103 % of control | [1] 94 % of control | dose: 25.0 mg/kg/injection, schedule: Q01DX009 (ip), vehicle: saline with Tween-80 95 % of control | [2] 102 % of control

O=C1NCC(CCl)O1 (stereo not drawn)
inactive: [3] 101 % of control | [4] 91 % of control | [5] 101 % of control

NC(N)(C(F)(F)F)C(F)(F)F
inactive: [3] 101 % of control | [4] 102 % of control | [5] 98 % of control

CN(C)CCNC1c2ccccc2CCc2ccccc21
inactive: dose: 18.75 mg/kg/injection, schedule: Q04DX003 (ip), vehicle: saline 98 % of control | dose: 37.5 mg/kg/injection, schedule: Q04DX003 (ip), vehicle: saline 104 % of control | dose: 75.0 mg/kg/injection, schedule: Q04DX003 (ip), vehicle: saline 101 % of control

CCOC(=O)C(=O)c1cnc2c(OC)nn(O)cc1-2
inactive: dose: 12.5 mg/kg/injection, schedule: Q04DX002 (ip), vehicle: saline with Tween-80 102 % of control | dose: 25.0 mg/kg/injection, schedule: Q04DX002 (ip), vehicle: saline with Tween-80 109 % of control | dose: 50.0 mg/kg/injection, schedule: Q04DX002 (ip), vehicle: saline with Tween-80 102 % of control

CCCCCCCCCCC(=O)N1CCOCC1
inactive: [1] 98 % of control | [2] 95 % of control | dose: 50.0 mg/kg/injection, schedule: Q04DX003 (ip), vehicle: saline with Tween-80 101 % of control

CCCNC(=O)NO
inactive: [6] 103 % of control | dose: 150.0 mg/kg/injection, schedule: Q01DX009 (ip), vehicle: other 105 % of control | [7] 100 % of control | [8] 105 % of control

CNC=O
inactive: dose: 32.0 mg/kg/injection, schedule: Q01DX015 (ip), vehicle: saline 94 % of control | dose: 42.87 mg/kg/injection, schedule: Q01DX Z (ip), vehicle: carboxymethylcellulose (CMC) 102 % of control | dose: 42.88 mg/kg/injection, schedule: Q01DX Z (ip), vehicle: carboxymethylcellulose (CMC) 107 % of control | dose: 44.12 mg/kg/injection, schedule: Q01DX Z (ip), vehicle: carboxymethylcellulose (CMC) 98 % of control | dose: 63.0 mg/kg/injection, schedule: Q01DX015 (ip), vehicle: saline 94 % of control | dose: 75.0 mg/kg/injection, schedule: Q01DX009 (ip), vehicle: saline 112 % of control | dose: 85.75 mg/kg/injection, schedule: Q01DX Z (ip), vehicle: carboxymethylcellulose (CMC) 103 % of control and 113 % of control | dose: 125.0 mg/kg/injection, schedule: Q01DX015 (ip), vehicle: saline 102 % of control | dose: 125.0 mg/kg/injection, schedule: Q01DX Z (ip), vehicle: saline 110 % of control | dose: 150.0 mg/kg/injection, schedule: Q01DX009 (ip), vehicle: saline 112 % of control | dose: 150.0 mg/kg/injection, schedule: Q01DX Z (ip), vehicle: saline 114 % of control | dose: 171.5 mg/kg/injection, schedule: Q01DX Z (ip), vehicle: carboxymethylcellulose (CMC) 110 % of control and 115 % of control | dose: 176.5 mg/kg/injection, schedule: Q01DX Z (ip), vehicle: carboxymethylcellulose (CMC) 111 % of control | dose: 225.0 mg/kg/injection, schedule: Q01DX001 (ip), vehicle: saline 101 % of control | dose: 225.0 mg/kg/injection, schedule: Q04DX003 (ip), vehicle: saline 97 % of control | dose: 250.0 mg/kg/injection, schedule: Q01DX015 (ip), vehicle: saline 110 % of control | dose: 300.0 mg/kg/injection, schedule: Q01DX009 (ip), vehicle: saline 121 % of control | dose: 343.0 mg/kg/injection, schedule: Q01DX Z (ip), vehicle: carboxymethylcellulose (CMC) 101 % of control and 118 % of control | dose: 353.0 mg/kg/injection, schedule: Q01DX Z (ip), vehicle: carboxymethylcellulose (CMC) 100 % of control | dose: 450.0 mg/kg/injection, schedule: Q01DX001 (ip), vehicle: saline 97 % of control | dose: 450.0 mg/kg/injection, schedule: Q04DX003 (ip), vehicle: saline 101 % of control | dose: 600.0 mg/kg/injection, schedule: Q01DX Z (ip), vehicle: saline 121 % of control | dose: 900.0 mg/kg/injection, schedule: Q01DX001 (ip), vehicle: saline 95 % of control | dose: 900.0 mg/kg/injection, schedule: Q04DX003 (ip), vehicle: saline 119 % of control | dose: 1000.0 mg/kg/injection, schedule: Q01DX015 (ip), vehicle: saline 105 % of control

COC(=O)C(NC(=O)CNC(=O)OCc1ccccc1)C(C)O (stereo not drawn) (Cbz-Gly-[ξT]-OMe)
inactive: [9] 98 % of control | [10] 96 % of control | [11] 93 % of control

O=C(OCc1ccccc1)c1ccc(OCc2ccccc2)cc1
inactive: dose: 100.0 mg/kg/injection, schedule: Q04DX003 (ip), vehicle: saline 94 % of control | dose: 200.0 mg/kg/injection, schedule: Q04DX003 (ip), vehicle: saline 100 % of control | dose: 400.0 mg/kg/injection, schedule: Q04DX003 (ip), vehicle: saline 96 % of control

COc1ccc(/C=C(\NC(C)=O)C(=O)O)cc1
inactive: dose: 100.0 mg/kg/injection, schedule: Q01DX009 (ip), vehicle: Klucel (hydroxypropylcellulose) (HPC) 104 % of control | [12] 100 % of control | dose: 200.0 mg/kg/injection, schedule: Q01DX009 (ip), vehicle: Klucel (hydroxypropylcellulose) (HPC) 97 % of control | [13] 100 % of control | dose: 400.0 mg/kg/injection, schedule: Q01DX009 (ip), vehicle: Klucel (hydroxypropylcellulose) (HPC) 98 % of control | [14] 112 % of control

CCOC(=O)CCCC(=O)N(CC(=O)OCC)Cc1ccccc1
inactive: [9] 102 % of control | [10] 93 % of control | [11] 90 % of control

CC1(C)CC(=O)C=C(OCCc2ccccc2)C1
inactive: [9] 96 % of control | [10] 94 % of control | [11] 91 % of control

COc1cc(C=Nc2ccccc2)ccc1OC(=O)c1ccccc1
inactive: dose: 100.0 mg/kg/injection, schedule: Q04DX002 (ip), vehicle: gum acacia 103 % of control | dose: 200.0 mg/kg/injection, schedule: Q04DX002 (ip), vehicle: gum acacia 95 % of control | dose: 400.0 mg/kg/injection, schedule: Q04DX002 (ip), vehicle: gum acacia 88 % of control

CCOc1ccc2c(c1)C(C)=CC(C)(C)N2
inactive: [12] 93 % of control | [13] 101 % of control | [14] 121 % of control

Oc1ccccc1C=NCCCN=Cc1ccccc1O
inactive: dose: 100.0 mg/kg/injection, schedule: Q01DX009 (ip), vehicle: gum acacia 104 % of control | dose: 100.0 mg/kg/injection, schedule: Q04DX003 (ip), vehicle: gum acacia 98 % of control | dose: 200.0 mg/kg/injection, schedule: Q01DX009 (ip), vehicle: gum acacia 101 % of control | dose: 200.0 mg/kg/injection, schedule: Q04DX003 (ip), vehicle: gum acacia 95 % of control | dose: 400.0 mg/kg/injection, schedule: Q01DX009 (ip), vehicle: gum acacia 101 % of control | dose: 400.0 mg/kg/injection, schedule: Q04DX003 (ip), vehicle: gum acacia 98 % of control

CS(=O)(=O)OC1C2(c3ccccc3)C=CCC1(c1ccccc1)C(c1ccccc1)=C2c1ccccc1 (stereo not drawn)
inactive: dose: 100.0 mg/kg/injection, schedule: Q01DX001 (ip), vehicle: Klucel (hydroxypropylcellulose) (HPC) 98 % of control | dose: 200.0 mg/kg/injection, schedule: Q01DX001 (ip), vehicle: Klucel (hydroxypropylcellulose) (HPC) 101 % of control | dose: 400.0 mg/kg/injection, schedule: Q01DX001 (ip), vehicle: Klucel (hydroxypropylcellulose) (HPC) 98 % of control

Cc1ccc(N=Nc2sc(N)nc2C)cc1
inactive: dose: 75.0 mg/kg/injection, schedule: Q01DX001 (ip), vehicle: saline 97 % of control | dose: 150.0 mg/kg/injection, schedule: Q01DX001 (ip), vehicle: saline 102 % of control

N#CCCCc1ccc(C(=O)O)cc1
inactive: [6] 95 % of control | [7] 100 % of control | [8] 97 % of control
